Our source for the T/C values is PubChem BioAssay AID212 (DTP/NCI, 2004).

For the assay, the system named is BDF1 mice, colon carcinoma 38 sc, T/C %. Nature of the assay: NCI In Vivo Anticancer Drug Screen. Data for tumor model Colon Carcinoma 38 (subcutaneous) in B6D2F1 (BDF1) mice. The note with it: endpoint: median tumor weight (est.), higher = larger tumour. An outline of the steps: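 Compound antitumor activity was assessed in mice carrying transplantable tumors. Survival or tumor size was recorded, and each value is the treated-group measurement divided by that of the vehicle-treated control group.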

The mark [1] stands for this setting: dose: 25.0 mg/kg/injection, schedule: Q07DX003 (ip), vehicle: suspension in saline.
The mark [2] stands for this setting: dose: 50.0 mg/kg/injection, schedule: Q07DX003 (ip), vehicle: suspension in saline.
[3] abbreviates: dose: 100.0 mg/kg/injection, schedule: Q07DX003 (ip), vehicle: suspension in saline.
The mark [4] stands for this setting: dose: 50.0 mg/kg/injection, schedule: Q07DX002 (ip), vehicle: saline with Tween-80.
Setting [5] is: dose: 200.0 mg/kg/injection, schedule: Q07DX002 (ip), vehicle: saline with Tween-80.
Where [6] appears, read: dose: 100.0 mg/kg/injection, schedule: Q07DX002 (ip), vehicle: saline with Tween-80.
The mark [7] stands for this setting: dose: 25.0 mg/kg/injection, schedule: Q07DX002 (ip), vehicle: saline.
Setting [8] is: dose: 50.0 mg/kg/injection, schedule: Q07DX002 (ip), vehicle: saline.
Setting [9] is: dose: 200.0 mg/kg/injection, schedule: Q07DX002 (ip), vehicle: saline.
Where [10] appears, read: dose: 400.0 mg/kg/injection, schedule: Q07DX002 (ip), vehicle: saline.
Where [11] appears, read: dose: 800.0 mg/kg/injection, schedule: Q07DX002 (ip), vehicle: saline.
Where [12] appears, read: dose: 50.0 mg/kg/injection, schedule: Q07DX003 (ip), vehicle: Klucel (hydroxypropylcellulose) (HPC).
[13] abbreviates: dose: 100.0 mg/kg/injection, schedule: Q07DX003 (ip), vehicle: Klucel (hydroxypropylcellulose) (HPC).
[14] abbreviates: dose: 200.0 mg/kg/injection, schedule: Q07DX003 (ip), vehicle: Klucel (hydroxypropylcellulose) (HPC).
Setting [15] is: dose: 12.5 mg/kg/injection, schedule: Q07DX002 (ip), vehicle: saline with Tween-80.

Where “and” joins values, the source holds several entries; their conditions need not be identical. Equal values may be shown once. Records with an inconclusive call do not appear.

On to `CC[n+]1ccc(Nc2ccc(NC(=O)c3ccc(C(=O)Nc4ccc(Nc5cc[n+](CC)c(N)n5)cc4)cc3)cc2)nc1N`, for which the T/C was 89 % of control (dose: 6.25 mg/kg/injection, schedule: Q07DX003 (ip), vehicle: saline); 70 % of control (dose: 6.25 mg/kg/injection, schedule: Q07DX003 (ip), vehicle: suspension in saline); 55 % of control (dose: 12.5 mg/kg/injection, schedule: Q07DX003 (ip), vehicle: saline); 67 % of control (dose: 25.0 mg/kg/injection, schedule: Q07DX003 (ip), vehicle: saline); 123 % of control under setting [1]; 67 % of control (dose: 50.0 mg/kg/injection, schedule: Q07DX003 (ip), vehicle: saline). The T/C reads like this: under setting [2], 54 % of control; (dose: 100.0 mg/kg/injection, schedule: Q07DX003 (ip), vehicle: saline) 56 % of control; under setting [3], 36 % of control.

Take `CC(=O)Oc1[nH]c(=O)c2cccc3c2c1CCC3`: the T/C by setting is: under setting [4], 161 % of control; under setting [5], 118 % of control; (dose: 400.0 mg/kg/injection, schedule: Q07DX002 (ip), vehicle: saline with Tween-80) 122 % of control; (dose: 1600.0 mg/kg/injection, schedule: Q07DX002 (ip), vehicle: saline with Tween-80) 118 % of control.

Turning to `CCCCNCCCNCCCNC(=O)c1csc(-c2csc(CCNC(=O)C(NC(=O)C(C)C(O)C(C)NC(=O)C(NC(=O)c3nc(C(CC(N)=O)NCC(N)C(N)=O)nc(N)c3C)C(OC3OC(CO)C(O)C(O)C3OC3OC(CO)C(O)C(OC(N)=O)C3O)c3cnc[nH]3)C(C)O)n2)n1` (configuration not stated), the T/C is, setting by setting: (dose: 3.75 mg/kg/injection, schedule: Q07DX002 (ip), vehicle: water) 81 % of control; (dose: 7.5 mg/kg/injection, schedule: Q07DX002 (ip), vehicle: water) 61 % of control; (dose: 15.0 mg/kg/injection, schedule: Q07DX002 (ip), vehicle: water) 56 % of control; (dose: 30.0 mg/kg/injection, schedule: Q07DX002 (ip), vehicle: water) 48 % of control.

`Cc1ccc(S(=O)(=O)N/N=C/C(=O)O)cc1`: the T/C was 116 % of control (dose: 12.5 mg/kg/injection, schedule: Q07DX002 (ip), vehicle: other); 165 % of control (dose: 25.0 mg/kg/injection, schedule: Q07DX002 (ip), vehicle: other); 75 % of control (dose: 50.0 mg/kg/injection, schedule: Q07DX002 (ip), vehicle: other); 90 % of control (dose: 100.0 mg/kg/injection, schedule: Q07DX002 (ip), vehicle: other); 178 % of control (dose: 200.0 mg/kg/injection, schedule: Q07DX002 (ip), vehicle: other).

On to `N#C[Se-].c1ccc([Te+](c2ccccc2)c2ccccc2)cc1`, for which the T/C (dose: 3.12 mg/kg/injection, schedule: Q07DX002 (ip), vehicle: Klucel (hydroxypropylcellulose) (HPC)) was 181 % of control; the T/C (dose: 6.25 mg/kg/injection, schedule: Q07DX002 (ip), vehicle: Klucel (hydroxypropylcellulose) (HPC)) is 80 % of control; the T/C (dose: 12.5 mg/kg/injection, schedule: Q07DX002 (ip), vehicle: Klucel (hydroxypropylcellulose) (HPC)) was 65 % of control; the T/C (dose: 25.0 mg/kg/injection, schedule: Q07DX002 (ip), vehicle: Klucel (hydroxypropylcellulose) (HPC)) was 186 % of control.

`CCCN1COC(OCC)C(C)(C)C1` (configuration not stated): the T/C reads like this: (dose: 25.0 mg/kg/injection, schedule: Q07DX002 (ip), vehicle: saline with Tween-80) 73 % of control; under setting [6], 68 % of control and 73 % of control; under setting [5], 77 % of control.

As to `CN(C)C=O`, the T/C under setting [7] was 45 % of control; the T/C under setting [8] is 83 % of control; the T/C under setting [9] was 89 % of control; the T/C under setting [10] was 89 % of control and 92 % of control; the T/C under setting [11] is 115 % of control.

`CC12CC(C(=O)O)C3(O)CC(C)(C1)CC(C)(C2)C3` (configuration not stated) (tested in a mixture with another compound): the T/C reads like this: (dose: 12.5 mg/kg/injection, schedule: Q07DX003 (ip), vehicle: Klucel (hydroxypropylcellulose) (HPC)) 70 % of control; (dose: 25.0 mg/kg/injection, schedule: Q07DX003 (ip), vehicle: Klucel (hydroxypropylcellulose) (HPC)) 94 % of control; under setting [12], 93 % of control; under setting [13], 121 % of control; under setting [14], 84 % of control.

In the case of `CN(Cc1cnc2nc(N)nc(N)c2n1)c1c(Cl)cc(C(=O)NC(CCC(=O)O)C(=O)O)cc1Cl` (configuration not stated), the T/C is 155 % of control (dose: 3.12 mg/kg/injection, schedule: Q07DX003 (ip), vehicle: Klucel (hydroxypropylcellulose) (HPC)); 117 % of control (dose: 6.25 mg/kg/injection, schedule: Q07DX003 (ip), vehicle: Klucel (hydroxypropylcellulose) (HPC)); 87 % of control (dose: 12.5 mg/kg/injection, schedule: Q07DX003 (ip), vehicle: suspension in saline); 124 % of control under setting [1]; 72 % of control under setting [12]; 77 % of control under setting [2]. Besides, the T/C reads like this: under setting [13], 90 % of control; under setting [3], 86 % of control; under setting [14], 102 % of control; (dose: 200.0 mg/kg/injection, schedule: Q07DX003 (ip), vehicle: suspension in saline) 81 % of control; (dose: 400.0 mg/kg/injection, schedule: Q07DX003 (ip), vehicle: Klucel (hydroxypropylcellulose) (HPC)) 62 % of control; (dose: 400.0 mg/kg/injection, schedule: Q07DX003 (ip), vehicle: suspension in saline) 101 % of control.

Turning to `Nc1nc2c(ncn2C2OC(CO)C(O)C2O)c(=O)[nH]1` (configuration not stated), the T/C reads like this: (dose: 100.0 mg/kg/injection, schedule: Q07DX002 (ip), vehicle: suspension in saline) 100 % of control; (dose: 200.0 mg/kg/injection, schedule: Q07DX002 (ip), vehicle: suspension in saline) 117 % of control; (dose: 400.0 mg/kg/injection, schedule: Q07DX002 (ip), vehicle: suspension in saline) 94 % of control; (dose: 800.0 mg/kg/injection, schedule: Q07DX002 (ip), vehicle: suspension in saline) 105 % of control; (dose: 1600.0 mg/kg/injection, schedule: Q07DX002 (ip), vehicle: suspension in saline) 90 % of control.

For `COC1=C(OC)C(=O)C(Sc2ccc3ccccc3c2)=CC1=O`, the T/C is 86 % of control (dose: 6.25 mg/kg/injection, schedule: Q07DX002 (ip), vehicle: saline with Tween-80); 63 % of control under setting [15]; 90 % of control and 98 % of control under setting [4]; 87 % of control and 88 % of control under setting [6]; 74 % of control under setting [5].

As for `c1cc[c]([Sn]([NH]c2ncnc3[nH]cnc23)([NH]c2ncnc3[nH]cnc23)[c]2ccccc2)cc1`, the T/C under setting [7] was 51 % of control; the T/C under setting [8] was 84 % of control; the T/C (dose: 100.0 mg/kg/injection, schedule: Q07DX002 (ip), vehicle: saline) is 46 % of control; the T/C under setting [9] is 81 % of control; the T/C under setting [10] was 66 % of control.

With `CC(=O)OCC1OC(n2ccc(N)nc2=O)C(OC(C)=O)C1OC(C)=O` (configuration not stated), the T/C under setting [7] was 113 % of control and 92 % of control; the T/C under setting [8] was 97 % of control and 104 % of control; the T/C under setting [11] was 30 % of control and 36 % of control.

Turning to `c1ccc([C@H]2CN3CCSC3=N2)cc1`, the T/C reads like this: (dose: 10.0 mg/kg/injection, schedule: Q07DX003 (ip), vehicle: saline) 77 % of control; (dose: 40.0 mg/kg/injection, schedule: Q07DX003 (ip), vehicle: saline) 45 % of control.

For the compound `CCCCCCCCCCCCCCCCCC(=O)Nc1ccn(C2OC(CO)C(O)C2O)c(=O)n1` (configuration not stated), the T/C is 99 % of control under setting [15]; 35 % of control and 59 % of control under setting [4]; 25 % of control under setting [6]; 4 % of control under setting [5].

Take `COc1ccc(-c2cc(=O)c3cccc(CC(=O)O)c3o2)cc1`: the T/C is 84 % of control under setting [6] and 113 % of control under setting [5].
